Data taken from PMC9297976 (Journal of Applied Toxicology, 2021).

What was measured:
[1] = biological target: T1, medaka Esr1 (mEsr1) (Oryzias latipes, UniProt P50241); assay: cell-based; design: species or system Japanese medaka (Oryzias latipes)
T1 sequence (P50241 1-620): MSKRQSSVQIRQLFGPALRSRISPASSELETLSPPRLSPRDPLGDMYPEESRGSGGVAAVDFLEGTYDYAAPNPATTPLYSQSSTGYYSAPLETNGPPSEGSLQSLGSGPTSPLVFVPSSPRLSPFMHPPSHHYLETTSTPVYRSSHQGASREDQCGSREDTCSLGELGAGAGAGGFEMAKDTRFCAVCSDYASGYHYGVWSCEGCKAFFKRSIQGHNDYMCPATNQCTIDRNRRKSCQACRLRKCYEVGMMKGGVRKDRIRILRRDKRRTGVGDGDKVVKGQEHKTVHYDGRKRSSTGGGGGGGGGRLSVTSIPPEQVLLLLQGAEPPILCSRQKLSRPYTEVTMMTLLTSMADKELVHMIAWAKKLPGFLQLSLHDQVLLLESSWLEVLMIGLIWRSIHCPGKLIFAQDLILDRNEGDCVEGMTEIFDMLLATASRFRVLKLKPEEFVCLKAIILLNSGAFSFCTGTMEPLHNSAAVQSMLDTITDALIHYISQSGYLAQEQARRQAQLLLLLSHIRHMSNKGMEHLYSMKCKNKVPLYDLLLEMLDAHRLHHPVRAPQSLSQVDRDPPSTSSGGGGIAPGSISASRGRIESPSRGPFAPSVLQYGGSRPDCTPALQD

[2] = biological target: T1, medaka Esr1 (mEsr1); assay: Medaka Esr1 reporter gene assay, antagonist assay; format: cell-based, Japanese medaka (Oryzias latipes); settings: E2 spiked at 1.0 nM (B); MAC = 1.0 × 10^−5 M
[3] = biological target: T2, medaka ARβ (mArβ) (Oryzias latipes, UniProt D1MV73); assay: Medaka ARβ reporter gene assay, agonist assay; format: cell-based, Japanese medaka (Oryzias latipes); settings: MAC = 1.0 × 10^−5 M
T2 sequence (D1MV73 1-744): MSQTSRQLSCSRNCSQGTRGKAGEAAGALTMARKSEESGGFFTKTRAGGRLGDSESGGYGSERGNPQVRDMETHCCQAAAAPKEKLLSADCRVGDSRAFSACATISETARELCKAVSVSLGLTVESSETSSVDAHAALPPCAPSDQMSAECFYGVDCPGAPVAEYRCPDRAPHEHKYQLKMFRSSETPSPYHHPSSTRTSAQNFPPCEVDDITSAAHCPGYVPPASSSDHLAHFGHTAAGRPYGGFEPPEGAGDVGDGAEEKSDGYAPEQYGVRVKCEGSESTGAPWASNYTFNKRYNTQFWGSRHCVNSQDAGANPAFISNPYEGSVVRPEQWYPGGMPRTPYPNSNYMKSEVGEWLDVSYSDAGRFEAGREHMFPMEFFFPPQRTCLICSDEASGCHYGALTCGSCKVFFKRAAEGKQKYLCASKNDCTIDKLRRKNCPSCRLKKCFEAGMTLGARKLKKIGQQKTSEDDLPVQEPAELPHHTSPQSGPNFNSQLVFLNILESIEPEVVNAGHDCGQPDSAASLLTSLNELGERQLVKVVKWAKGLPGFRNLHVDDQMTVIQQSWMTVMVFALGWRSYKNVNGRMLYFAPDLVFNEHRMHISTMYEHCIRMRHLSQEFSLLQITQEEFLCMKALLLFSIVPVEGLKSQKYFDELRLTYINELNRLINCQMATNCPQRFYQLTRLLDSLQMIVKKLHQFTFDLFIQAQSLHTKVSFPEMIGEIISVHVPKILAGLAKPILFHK

[4] = biological target: T2, medaka ARβ (mArβ); assay: Medaka ARβ reporter gene assay, antagonist assay; format: cell-based, Japanese medaka (Oryzias latipes); settings: 11‐KT spiked at 50 nM (D); MAC = 1.0 × 10^−5 M
[5] = test system: Japanese medaka (Oryzias latipes); assay: Fish Short‐Term Reproduction Assay; format: in vivo; settings: for GSI Female / GSI Male / HSI Female / HSI Male / Length Female / Length Male / Weight Female / Weight Male: completion of exposure
[6] = 18.8 μg/L measured, 21 d, sig. ↑ vs control
[7] = 51.8 μg/L measured, 21 d, sig. ↑ vs control
[8] = 51.8 μg/L measured, 21 d, sig. ↓ vs control
[9] = 170 μg/L measured, 21 d, sig. ↑ vs control
[10] = measured concentration 5.63 μg/L
[11] = measured concentration 18.8 μg/L
[12] = measured concentration 51.8 μg/L
[13] = measured concentration 170 μg/L

4‐Nonylphenol (branched) [Chemical 4NP]
In vitro positive: Esr ([1]; mode of action in which EC50 or PC10 was obtained in RGA): Esr
EC50 ([1]; read-out: Agonistic activity EC50, HEK293 cells): 22 nM
Antagonistic activity [2]: NE (MAC = 1.0 × 10^−5 M)^(B)
Agonistic activity [3]: NE (MAC = 1.0 × 10^−5 M)
Antagonistic activity [4]: NE (MAC = 1.0 × 10^−5 M)^(D)
Fertility rate ([5]; 5.63 μg/L measured, 21 d): 97 ± 2.2%
Hepatic VTG, female ([5]; 5.63 μg/L measured, 21 d): 866 ± 277 ng/mg‐liver
Mortality ([5]; 5.63 μg/L measured, 21 d): 0.0%
Mortality, number of dead fish ([5]; 5.63 μg/L measured, 21 d): 0
Number of fertilized eggs (per female per day) ([5]; 5.63 μg/L measured, 21 d): 20 ± 1.2
Number of total eggs (per female per day) ([5]; 5.63 μg/L measured, 21 d): 21 ± 0.9
SSC female (joint plates with papillary processes) ([5]; 5.63 μg/L measured, 21 d): 0 ± 0
SSC male (joint plates with papillary processes) ([5]; 5.63 μg/L measured, 21 d): 92 ± 15
Hepatic VTG, male ([5]; 5.63 μg/L measured, 21 d, sig. ↑ vs control): 32 ± 31 ng/mg‐liver
Fertility rate ([5]; 18.8 μg/L measured, 21 d): 94 ± 7.7%
Mortality ([5]; 18.8 μg/L measured, 21 d): 0.0%
Mortality, number of dead fish ([5]; 18.8 μg/L measured, 21 d): 0
Number of fertilized eggs (per female per day) ([5]; 18.8 μg/L measured, 21 d): 17 ± 5.4
Number of total eggs (per female per day) ([5]; 18.8 μg/L measured, 21 d): 18 ± 4.9
SSC female (joint plates with papillary processes) ([5]; 18.8 μg/L measured, 21 d): 0 ± 0
SSC male (joint plates with papillary processes) ([5]; 18.8 μg/L measured, 21 d): 79 ± 21
Hepatic VTG, female [5, 6]: 1,153 ± 300 ng/mg‐liver
Hepatic VTG, male [5, 6]: 375 ± 320 ng/mg‐liver
Mortality ([5]; 51.8 μg/L measured, 21 d): 0.0%
Mortality, number of dead fish ([5]; 51.8 μg/L measured, 21 d): 0
SSC female (joint plates with papillary processes) ([5]; 51.8 μg/L measured, 21 d): 0 ± 0
SSC male (joint plates with papillary processes) ([5]; 51.8 μg/L measured, 21 d): 97 ± 13
Hepatic VTG, female [5, 7]: 1,348 ± 258 ng/mg‐liver
Hepatic VTG, male [5, 7]: 2,431 ± 1,455 ng/mg‐liver
Fertility rate [5, 8]: 61 ± 10%
Number of total eggs (per female per day) [5, 8]: 13 ± 3.0
Mortality ([5]; 170 μg/L measured, 21 d): 4.2%
Mortality, number of dead fish ([5]; 170 μg/L measured, 21 d): 1
SSC female (joint plates with papillary processes) ([5]; 170 μg/L measured, 21 d): 0 ± 0
SSC male (joint plates with papillary processes) ([5]; 170 μg/L measured, 21 d): 87 ± 12
Hepatic VTG, female [5, 9]: 1,212 ± 506 ng/mg‐liver
Hepatic VTG, male [5, 9]: 5,009 ± 1830 ng/mg‐liver
Fertility rate ([5]; 170 μg/L measured, 21 d, sig. ↓ vs control): 33 ± 9.7%
Change of hepatic VTG levels in females (in words) ([5]; 21 d): significant increase
Fecundity, number of total eggs (in words) ([5]; 21 d): statistically significant decrease
LOEC, elevated hepatic VTG in males ([5]; 21 d): 5.63 µg/L
LOECmVTG ([5]; LOEC on VTG induction in males): 5.63 µg/L
LOECREPRO ([5]; LOEC on reproduction (fecundity and/or fertility)): 51.8 µg/L
LOECTOX ([5]; lowest observed effect concentration on mortality): ND (>170) μg/L
GSI Female [5, 10]: 7.8 ± 1.6%
GSI Male [5, 10]: 1.02 ± 0.07%
HSI Female [5, 10]: 3.4 ± 0.55%
HSI Male [5, 10]: 1.7 ± 0.10%
Length Female [5, 10]: 36.7 ± 1.3 mm
Length Male [5, 10]: 36.8 ± 1.3 mm
Weight Female [5, 10]: 535 ± 82 mg
Weight Male [5, 10]: 515 ± 45 mg
GSI Female [5, 11]: 8.9 ± 0.6%
GSI Male [5, 11]: 1.08 ± 0.06%
HSI Female [5, 11]: 4.1 ± 0.59%
HSI Male [5, 11]: 1.7 ± 0.28%
Length Female [5, 11]: 35.5 ± 1.2 mm
Length Male [5, 11]: 37.5 ± 0.6 mm
Weight Female [5, 11]: 500 ± 46 mg
Weight Male [5, 11]: 552 ± 34 mg
GSI Female [5, 12]: 7.7 ± 0.6%
GSI Male [5, 12]: 1.15 ± 0.20%
HSI Female [5, 12]: 4.2 ± 0.66%
HSI Male [5, 12]: 2.0 ± 0.22%
Length Female [5, 12]: 36.4 ± 0.8 mm
Length Male [5, 12]: 37.6 ± 1.2 mm
Weight Female [5, 12]: 537 ± 45 mg
Weight Male [5, 12]: 552 ± 69 mg
GSI Female [5, 13]: 7.9 ± 1.5%
GSI Male [5, 13]: 1.05 ± 0.15%
HSI Female [5, 13]: 3.9 ± 0.58%
HSI Male [5, 13]: 2.4 ± 0.10%
Length Female [5, 13]: 36.0 ± 1.6 mm
Length Male [5, 13]: 38.6 ± 1.5 mm
Weight Female [5, 13]: 540 ± 64 mg
Weight Male [5, 13]: 602 ± 64 mg
